Entries after “also recorded” stand apart in the source; their conditions may differ. Like-named read-outs stand apart in the source and are kept apart here.
Columns and labels:
bone marrow cells = bone marrow cells irradiated with 1 Gy, injected into lethally irradiated recipients (8 Gy); peptide 10 ug per kg intraperitoneally 15-30 minutes after the cells; cited from earlier work
[1] = tested on: influenza of the H1N2, H3N2, and B strains; set-up: species or system Balb/c mice; settings: mouse, in vivo
influenza antigen = format: in vivo, Balb/c mice
[2] = tested on: peripheral blood mononuclear cells (PBMC); assay: MIMIC peripheral tissue equivalent (PTE) assay; format: cell-based, human
antibody forming cells = settings: cited from earlier work
T-cells in spleen = settings: peptide 10 μg/kg, cited from earlier work
spleen and thymus = settings: mice irradiated 2 Gy, peptide 10 μg/kg, cited from earlier work
allogeneic lymphocytes = settings: H-2d anti H-2b, cited from earlier work
hematopoietic cells = settings: cited from earlier work

Ile-Glu-(Trp)-OH
Number of CFU-S (bone marrow cells): 8.5 ± 0.5

Lys-Glu-(Trp-NH2)-OH
Number of CFU-S (bone marrow cells): 5.9 ± 0.4

Ala-Glu-Trp-OH
Number of CFU-S (bone marrow cells): 8.7 ± 0.4

Leu-Glu-Trp-OH
Number of CFU-S (bone marrow cells): 6.5 ± 0.5

Ile-Glu-Trp-NH2
Number of CFU-S (bone marrow cells): 7.9 ± 0.4

Phe-Glu-Trp-OH
Number of CFU-S (bone marrow cells): 6.6 ± 0.3

Val-Glu-Trp-OH
Number of CFU-S (bone marrow cells): 8.2 ± 0.3

Pyro-Glu-Trp-OH
Number of CFU-S (bone marrow cells): 9.3 ± 0.4

Lys-Glu-(Trp)-OH
Number of CFU-S (bone marrow cells): 5.9 ± 0.5

Tyr-Glu-Trp-OH
Number of CFU-S (bone marrow cells): 7.3 ± 0.4

Glu-Trp-OH
Number of CFU-S (bone marrow cells): 10.5 ± 0.3

iGlu-Trp-OH
Number of CFU-S (bone marrow cells): 10.1 ± 0.5

H-L-Ile-L-Glu-L-Trp-OH [Neogen]
HI titer [1]: higher response than any of the other groups; also recorded: higher HI response | HI titer ([1]; sc): no HI titer | IgG1 levels (area-under-the-curve analysis) (influenza antigen; low-dose Neogen with Vaxigrip compared with Vaxigrip alone): statistically significant increase in IgG1 levels | IgG1 response (influenza antigen; mouse, in vivo): progressively lower IgG1 responses | IgG2a response (influenza antigen; mouse, in vivo): higher IgG2a responses | Cell-surface expression of HLA-DR on dendritic cells [2]: primed for antigen presentation | Dendritic cells migrating (reverse transmigrating) across the HUVEC layer ([2]; Neogen alone, preliminary): fewer dendritic cells migrating across the HUVEC layer; also recorded: reduced the number of cells found to reverse transmigrate | Number of dendritic cells recovered ([2]; Neogen alone, preliminary): did not | Number of dendritic cells recovered ([2]; Neogen in the presence of antigen, preliminary): increased the number of dendritic cells recovered from the system | Dendritic cells migrating (reverse transmigrating) across the HUVEC layer ([2]; Neogen plus antigen, preliminary): fewer dendritic cells migrating across the HUVEC layer; also recorded: reduced the number of cells found to reverse transmigrate | Differentiation of donor PBMCs into macrophages and dendritic cells ([2]; as little as 1 ug/mL of Neogen in the presence of antigen, preliminary): enhanced the ability of donor PBMCs to differentiate into macrophages and dendritic cells | Number of CFU-S (bone marrow cells): 11.5 ± 0.3 | AFC increase, humoral response to SE (antibody forming cells; intact mice, peptide 10 μg/kg intramuscularly, 3 or 4 times): 5 times | Number of antibody forming cells (antibody forming cells; mice irradiated 2 Gy, peptide 10 μg/kg, 3 and 4 injections): practically doubled | T-cell count (T-cells in spleen; intact mice, 3 or 4 times): being the same as it was | T-cell count in spleen (T-cells in spleen; mice irradiated 2 Gy, 1 to 4 injections, especially three or four): grew in all mice who received the peptide injections | Karyocyte count in thymus (spleen and thymus; 3 and 4 injections): a certain growth of the karyocyte count in thymus | Karyocyte count in spleen per mg of organ weight (spleen and thymus; one and four injections): increase in the karyocyte count in spleen | Proliferation of allogeneic lymphocytes in MLC (allogeneic lymphocytes; peptide 0.1 μg/mL): negligible inhibition of the proliferation | Proliferation of allogeneic lymphocytes in MLC (allogeneic lymphocytes; peptide 1, 10, and 20 μg/mL): stimulated proliferation of the allogeneic lymphocytes | Hemoglobin levels (hematopoietic cells; animals first irradiated and then treated, U.S. Pat. No. 6,159,950, Example 8): more rapidly restored hemoglobin levels | Antibody forming cells (AFC) after challenge with sheep erythrocytes (hematopoietic cells; irradiated mice, U.S. Pat. No. 6,159,950, Example 4): making antibody forming cells (AFC) against the challenge

Lys-Glu-Trp-OH
Number of CFU-S (bone marrow cells): 6.2 ± 0.4
